# Columns and labels:
# Format in all cases: cell-based, human
# [1] = system: MAGE mRNA in HMC-1.1 cell; experiment: Genechip array analysis of MAGE mRNA after STI 571; settings: HMC-1.1 cells, 1 μM STI571 for 4 hours, Means +/- SEM
# Source text: (§1) The human mast cell line HMC-1 is dependent on the expression of mutant KIT protein which is constitutively activated, and inhibition of activated KIT with a drug induces apoptosis of HMC-1 cells (Ma et al., 2002, The c-KIT mutation causing human mastocytosis is resistant to STI571 and other KIT kinase inhibitors; kinases with enzymatic site mutations show different inhibitor sensitivity profiles than wild-type kinases and those with regulatory-type mutations. Blood 99:1741-4.). However, the mechanism by which KIT inhibitors cause apoptosis in these cells is unknown. To look for genes whose products could regulate and transduce KIT related signals controlling apoptosis, we used gene chip array analysis to study changes in the mRNA levels of specific genes following induction of apoptosis.
# HMC-1.1 cells were divided into triplicate cultures of two groups: a control group treated with PBS, and an experimental group treated with 1 μM STI571, a KIT inhibitor for 4 hours. A quarter of the cells were used for Western blots to confirm the KIT inhibition, and the rest were used for total RNA isolation for genechip analysis. We used Affymetrix Genechip human Genome U133A chips. The arrays were hybridized and scanned and the data were analyzed using dChip analysis software. The statistical significance of differences in mRNA expression levels between STI571 treated and control cells were assessed by t-test based on data from three independent replicates. Values are expressed as Means +/−SEM, and p<0.05 was considered statistically significant.
# HMC-1.1 cells = experiment: Induction of apoptosis by STI 571; settings: following decrease of MAGE mRNA and protein
# Source text: as §1
# [2] = system: MAGE-A protein in HMC-1.1 cells; experiment: Western blot of MAGE-A protein after STI 571; settings: 12 and 24 hours after administration of STI 571
structure (smiles),measurement,setting,value
Cc1ccc(NC(=O)c2ccc(CN3CCN(C)CC3)cc2)cc1Nc1nccc(-c2cccnc2)n1 [STI 571],"mRNA level, melanoma antigen, family A, 1 (NM_004988)","[1]; three replicates, PBS control 757 ± 29",562 ± 33
same,"mRNA level, melanoma antigen, family A, 12 (BC003408)",[1]; PBS control 513 ± 29,410 ± 26
same,"mRNA level, melanoma antigen, family E, 1 (NM_016249)",[1]; PBS control 514 ± 13,405 ± 21
same,"mRNA level, melanoma antigen, family A, 5 (AI200443)",[1]; PBS control 520 ± 28,414 ± 28
same,"mRNA level, melanoma antigen, family A, 6 (U10691)",[1]; PBS control 896 ± 54,712 ± 42
same,"mRNA level, melanoma antigen, family A, 3 (BC000340)",[1]; PBS control 977 ± 67,779 ± 32
same,apoptosis of the cells,HMC-1.1 cells,followed by apoptosis of the cells
same,MAGE-A protein level (Western blot),[2],down-regulation of MAGE-A protein
